TGI and GI50 data for 24 compounds are collected here from PubChem BioAssay (NCI).

Test in all cases: DTP human tumour cell line panel, 48 h
In assay [1] the test system is SNB-78 CNS.
Assay [2] deals with LXFL 529 NSCLC.
Assay [3] relates to RXF-631 renal.
Assay [4] concerns KM20L2 colon.
Assay [5] deals with PC-3 prostate.
The subject of assay [6] is MDA-N.
Assay [7] concerns HOP-18 NSCLC.
In assay [8] the test system is MDA-MB-231 breast.
Assay [9] deals with BT-549 breast.

“And” between values parts separate entries of the source, which are not always exact repeats. Equal values may be shown once.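 48-hour exposure; five concentrations; linearly interpolated endpoints. GI50 marks 50% less growth. At the TGI there is no net growth.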

As a reminder, the TGI is the concentration at which net growth stops. In the case of `CCN(CC)C(c1ccc(N(C)C)cc1)C(c1ccc(N(C)C)cc1)N(CC)CC` (configuration not stated), the concentration for total growth inhibition (TGI) in assay [1], in assay [2], in assay [3] and in [4] was over 73 µM in each case.

With `CCOCC(=O)N[C@H]1CCc2cc(OC)c(OC)c(OC)c2-c2ccc(OC)c(=O)cc21`, the TGI in assay [1] is over 100 µM; in [5] it was over 100 µM; in assay [2], over 100 µM; in assay [4], 0.0375 µM; in [6] it was under 0.0196 µM; in [7], over 100 µM. In assay [8], this compound yielded a TGI of over 100 µM.

Turning to `COC1(C)CP(=O)(OC(C)C)CC(C)=C1Cl` (configuration not stated), the TGI in assay [5] was found to be 77.9 µM; in assay [6] it was 47.7 µM; in assay [9], 46.6 µM; in assay [8], 34.1 µM.

Consider `C/C(CC(=O)Nc1cc(C)ccc1C)=N\NC(=O)c1ccncc1`, for which the TGI in [1], in assay [2], in assay [3] and in [4] was over 100 µM in each case.

As for `CC(=O)OCC1OC(NC(=S)N/N=C2\CC(c3ccccc3)Oc3ccccc32)C(OC(C)=O)C(OC(C)=O)C1OC(C)=O` (configuration not stated), the TGI in assay [1], in assay [2], in assay [3], in [4] and in [7] was over 100 µM throughout.

Consider `CNC(=O)C1CCc2nnc(-c3ccccc3)n21` (configuration not stated), for which the TGI in assay [1], in assay [2], in assay [3], in assay [4] and in assay [7] was over 100 µM each time.

`Cc1c(C(=O)C/C(=N/NC(=O)C[N+](C)(C)C)C(=O)Nc2ccc(Cl)cc2)[n+](=O)c2ccccc2n1O`: the total growth inhibition concentration (TGI) in [1], in assay [2], in assay [3], in assay [4] and in assay [7] was over 100 µM each time.

As to `CCCC1N2CCCCC2[C@@H]2c3[nH]c4ccccc4c3CCN12` (some centres not stated), the TGI in assay [1], in assay [2], in assay [4] and in [7] was over 100 µM throughout.

`O=C1c2ccccc2C(=O)N1CCc1ncc[nH]1`: the TGI in [5] and in assay [6] was over 100 µM each time.

As to `CN(C)/N=C(/CC(O)(C(F)(F)F)C(F)(F)F)c1ccc([N+](=O)[O-])cc1`, the TGI in assay [5], in assay [6] and in [8] was over 100 µM throughout.

What is called GI50 is the concentration giving 50% growth inhibition. Take `CC(=O)O[C@H]1C(=O)[C@@]2(C)C(C(OC(=O)c3ccccc3)[C@]3(O)CC(OC(=O)[C@H](OC(=O)CCC(=O)O)C(NC(=O)c4ccccc4)c4ccccc4)C(C)=C1C3(C)C)C1(OC(C)=O)COC1C[C@@H]2O` (some centres not stated): the figures for the TGI in assay [5] and in assay [6] were 0.0512 µM and under 0.01 µM, respectively. Further, in assay [8], the GI50 was < 0.0171 µM and 0.0486 µM.

Turning to `Cc1ccc(NC(=O)CC(=O)n2nc(C)c(N=Nc3ccccc3C(=O)O)c2C)cc1`, the TGI in assay [1], in [2], in assay [3] and in assay [4] was over 100 µM throughout.

Regarding `Nc1cccc(S(=O)(=O)NCC(=O)O)c1`, the TGI in assay [1], in [2], in assay [3], in assay [4] and in [7] was over 100 µM in each case.

Regarding `Nc1c(-c2ccc(Cl)cc2)[n+]([O-])c2ccccc2[n+]1[O-]`, the TGI in [1], in assay [2], in [4] and in [7] was over 100 µM throughout.

For `O=C(N/C(=C\c1cccc([N+](=O)[O-])c1)c1nc2ccc([N+](=O)[O-])cc2[nH]1)c1ccccc1`, the TGI in assay [1] was over 100 µM; in [2], 75.1 µM; in assay [3] it was over 100 µM; in assay [4] it was over 100 µM.

Take `Cc1cccc(C(C)C)c1NC(=O)/C(Cc1c([N+](=O)[O-])cccc1[N+](=O)[O-])=N/NC(=O)CC#N`: the TGI in assay [2], in assay [3], in assay [4] and in assay [7] was over 100 µM throughout.

As to `O=C(CC1(O)C(=O)Nc2c(Cl)ccc(Cl)c21)c1ccc(F)cc1` (configuration not stated), the total growth inhibition concentration (TGI) in [1] is over 100 µM; in [2], 92.1 µM; in assay [3], over 100 µM; in [4] it was over 100 µM; in assay [7], over 100 µM.

Take `O/N=C/c1ncccc1C1OCCO1`: the TGI in assay [1], in assay [2], in assay [4] and in assay [7] was over 100 µM in each case.

Consider `O=C1C(Cl)=C(NCCN2CCOCC2)C(=O)c2ncccc21`, for which, in assay [5], the GI50 was 4.26 µM. The TGI in assay [5] was 18.7 µM; in [6], 0.389 µM; in assay [9], 3.21 µM and 3.03 µM; in [8], 5.02 µM and 3.77 µM.

On to `N#C/C(=C\c1ccc2ccccc2c1)c1ccccc1`, for which the total growth inhibition concentration (TGI) in [1] is 84.7 µM; in assay [2], over 100 µM; in assay [3] it was over 100 µM; in [4], 34.9 µM; in assay [7], over 100 µM.

As for `COc1ccc2nc3c(C(=O)NCCN(C)C)cccc3nc2c1`, the TGI is 72 µM in assay [1] and over 100 µM in [7].

On to `CCCC(=O)OCC1OC(n2cnc3c(=S)nc[nH]c32)C(OC(=O)CCC)C1OC(=O)CCC` (configuration not stated), for which the values for the GI50 in [5], in assay [9] and in assay [8] were 3.72 µM, 14.3 µM and 5.71 µM, respectively. The TGI in assay [5], in [9] and in assay [8] was over 100 µM throughout.

For the compound `CCC[CH2][Sn]1([CH2]CCC)[O]C(=O)CN=Cc2c(ccc3ccccc23)[O]1`, the GI50 in assay [1] is 0.282 µM; in assay [2] it was 0.107 µM; in [3], 0.0181 µM; in assay [4], 1.09 µM; in [7], 0.223 µM. Also, the concentration for total growth inhibition (TGI) came to 1.4 µM in assay [1]; 0.249 µM in assay [2]; 0.0331 µM in [3]; 2.29 µM in [4]; 1.52 µM in assay [7].

Consider `O=C(CC1(O)C(=O)Nc2ccccc21)c1ccncc1` (configuration not stated), for which the concentration for total growth inhibition (TGI) in assay [1], in assay [2] and in assay [4] was over 100 µM each time.
